For this assay, the system named is brain cell types. As to the kind of experiment: In vivo two-photon imaging of mouse cortex after topical cortical administration of fluorophores. The note with it: for Target: cell type taking up the compound in vivo (Table 1); for endothelial cell labeling/uptake after topical application to the brain: topical cortical application. On the procedure: Briefly, animals are anaesthetized via intraperitoneal injections of ketamine/xylazine or via inhaled isoflurane. A region of the skull (3×3 mm) is gently removed with a high-speed drill and the underlying dura is removed. A small glass coverslip is placed over the skull to allow long term optical access for in vivo imaging. Labeling with fluorescent dyes is performed either via intravenous injections or topically application to the cortical surface for 20 min prior to glass cover placement. After recovery, in vivo images are acquired using a two-photon microscope (Bruker Technologies) equipped with a multimodal (fixed wavelength 1040 nm and tunable wavelength) InSight X3 two-photon laser (Spectra Physics) and 20× water immersion objective (Zeiss 1.0N.A.). The two-photon laser is appropriately tuned to excite particular fluorescent dyes and proteins as needed. In selected cases, following in vivo imaging, mice will be sacrificed and perfused for follow up immunohistochemistry and high-resolution confocal imaging (Leica SP8) to further confirm colocalization of dyes and cells expressing particular transporters.
One-month-old wild-type mice were anesthetized using a ketamine/xylazine solution at doses of 100 mg/kg and 10 mg/kg, respectively. The fur around the skull area was shaved, and buprenex (0.1 mg per kg) and carprofen (5 mg per kg) were administered subcutaneously. Mice were kept on a heating pad at 37° C., and anesthesia was periodically monitored. The skin was treated with povidone-iodine solution, followed by cleaning with ethanol, and eye ointment was applied. A small skin section was excised to expose the skull. Thinning of the skull was performed in a circular area, followed by delicately lifting of the remaining skull without harm to the underlying brain. Within the circular region, the dura was gently removed using fine forceps, and a 4 mm cover glass was softly pressed onto the brain surface and affixed to the skull. Fluorescent dyes were applied either through intravenous injections or topically to the cortical surface for 20 minutes before placing the glass cover. A customized head bar was attached either by adhesive (for acute imaging) or permanently implanted (using dental cement, for chronic imaging) onto the skull. Mice were imaged under a two-photon microscope (Prairie Technologies) with a mode-locked MaiTai tunable laser (Spectra Physics). Imaging was performed with a 20× water immersion objective (Zeiss, 1.0NA). Images were captured at depths up to 300 μm from the pial surface using excitation wavelengths ranging from 750 to 950 nm as previously described. Mice undergoing chronic imaging received a recovery period on a heating pad post-surgery, and buprenex (0.1 mg per kg) and carprofen (5 mg per kg) were administered for 3 days.
Batches of 10 compounds were applied through the craniotomy to the cortical surface before placing a cover glass window. No additional washings were performed, and the cover glass was placed, allowing up to 3 hours of imaging of the cortical surface with a two-photon microscope. Following imaging, the data were analyzed to identify potential patterns of cell-specific labeling. […] Positive batches underwent three additional rounds of imaging, with each batch being sequentially split, until a single compound displaying cell-type-specific labeling was identified. As these compounds were not initially purified, the labeling may have resulted from fluorescent byproducts of synthesis. Consequently, large-scale synthesis, purification and characterization (FIGS. 29A-29D) of the identified compounds were conducted. The purified compounds were subsequently retested using in vivo imaging to confirm cell type specificity.
It was reasoned that the best strategy to identify fluorophores with specific affinity to certain cell types and transport mechanisms would be by direct screening in the intact in vivo brain microenvironment. […]

Turning to `CCN(CC)c1ccc2c(-c3ccc(S(=O)(=O)O)cc3S(=O)(=O)[O-])c3ccc(N(CC)CC)cc3[o+]c2c1` [Compound 46, 2-(3,6-bis(diethylamino)xanthylium-9-yl)-5-sulfobenzenesulfonate], the Target result was “Endothelial”.

Turning to `O=S(=O)([O-])c1cc(S(=O)(=O)O)ccc1C1=c2cc3c4c(c2Oc2cc(Cl)ccc21)CCC[N+]=4CCC3` [Compound 3, 2-(12-chloro-1,2,3,5,6,7-hexahydrochromeno[2,3-f]pyrido[3,2,1-ij]quinolin-4-ium-9-yl)-5-sulfobenzenesulfonate], the Target entry is listed as “Endothelial”.

As for `O=S(=O)([O-])c1cc(S(=O)(=O)O)ccc1C1=c2cc3c4c(c2Oc2cc(Cl)c(Cl)cc21)CCC[N+]=4CCC3` [Compound 12, 2-(11,12-dichloro-1,2,3,5,6,7-hexahydrochromeno[2,3-f]pyrido[3,2,1-ij]quinolin-4-ium-9-yl)-5-sulfobenzenesulfonate], the Target entry is “Endothelial”.

Regarding `Cc1ccc2c(-c3ccc(S(=O)(=O)O)cc3S(=O)(=O)[O-])c3ccc(Br)cc3[o+]c2c1` [Compound 29], the Target result is “Endothelial”.

Take `O=S(=O)([O-])c1cc(S(=O)(=O)O)ccc1C1=c2cc3c4c(c2Oc2c1ccc(F)c2Cl)CCC[N+]=4CCC3` [Compound 22, 2-(13-chloro-12-fluoro-1,2,3,5,6,7-hexahydrochromeno[2,3-f]pyrido[3,2,1-ij]quinolin-4-ium-9-yl)-5-sulfobenzenesulfonate]: the Target entry is “Endothelial”.

Take `O=S(=O)([O-])c1cc(S(=O)(=O)O)ccc1C1=c2cc3c4c(c2Oc2cc(Cl)c(Br)cc21)CCC[N+]=4CCC3` [Compound 13, 2-(11-bromo-12-chloro-1,2,3,5,6,7-hexahydrochromeno[2,3-f]pyrido[3,2,1-ij]quinolin-4-ium-9-yl)-5-sulfobenzenesulfonate]: the Target entry is “Endothelial”.

Take `CN(C)c1ccc2c(-c3ccc(S(=O)(=O)Cl)cc3S(=O)(=O)[O-])c3ccc(N(C)C)cc3[o+]c2c1` [Compound 54, 2-(3,6-bis(dimethylamino)xanthylium-9-yl)-5-(chlorosulfonyl)benzenesulfonate]: the “cellular labeling in cortex” value (topical cortical administration, 50 μM, wild type mice) is recorded as “robust endothelial specific uptake”.

`O=S(=O)([O-])c1cc(S(=O)(=O)O)ccc1C1=c2cc3c4c(c2Oc2cc(I)c(Cl)cc21)CCC[N+]=4CCC3` [Compound 16, 2-(11-chloro-12-iodo-1,2,3,5,6,7-hexahydrochromeno[2,3-f]pyrido[3,2,1-ij]quinolin-4-ium-9-yl)-5-sulfobenzenesulfonate]: the Target entry is given as “Endothelial”.

Take `O=S(=O)([O-])c1cc(S(=O)(=O)O)ccc1C1=c2cc3c4c(c2Oc2cc(I)ccc21)CCC[N+]=4CCC3` [Compound 4, 2-(12-iodo-1,2,3,5,6,7-hexahydrochromeno[2,3-f]pyrido[3,2,1-ij]quinolin-4-ium-9-yl)-5-sulfobenzenesulfonate]: the Target entry is recorded as “Endothelial” and the “endothelial cell labeling/uptake after topical application to the brain” value is “selectively labeling endothelial cells in vivo”.

For `CN(C)c1ccc2c(-c3ccc(S(=O)(=O)O)cc3S(=O)(=O)[O-])c3ccc(Br)cc3[o+]c2c1` [Compound 42, 2-(3-bromo-6-(dimethylamino)xanthylium-9-yl)-5-sulfobenzenesulfonate], the Target entry was “Endothelial”.

For `O=S(=O)([O-])c1cc(S(=O)(=O)O)ccc1C1=c2cc3c4c(c2Oc2cc(F)c(Br)cc21)CCC[N+]=4CCC3` [Compound 10, 2-(11-bromo-12-fluoro-1,2,3,5,6,7-hexahydrochromeno[2,3-f]pyrido[3,2,1-ij]quinolin-4-ium-9-yl)-5-sulfobenzenesulfonate], the Target entry was “Endothelial”.

Turning to `O=S(=O)([O-])c1cc(S(=O)(=O)O)ccc1C1=c2cc3c4c(c2Oc2cc5ccc(Br)cc5cc21)CCC[N+]=4CCC3` [Compound 44, 2-(12-bromo-1,2,3,5,6,7-hexahydrobenzo[6,7]chromeno[2,3-f]pyrido[3,2,1-ij]quinolin-4-ium-9-yl)-5-sulfobenzenesulfonate], the Target entry was “Endothelial”.

`O=S(=O)([O-])c1cc(S(=O)(=O)O)ccc1C1=c2cc3c4c(c2Oc2c1ccc(Cl)c2Cl)CCC[N+]=4CCC3` [Compound 23, 2-(12,13-dichloro-1,2,3,5,6,7-hexahydrochromeno[2,3-f]pyrido[3,2,1-ij]quinolin-4-ium-9-yl)-5-sulfobenzenesulfonate]: the Target entry was “Endothelial”.

As to `CCN(CC)c1ccc2c(-c3ccc(S(=O)(=O)NCCOCCOCCOCCOCCOCCOCCOCCOCCOCCOCCOCCOCCOCCOCCOCCOCCOCCOCCOCCOCCOCCOC)cc3S(=O)(=O)[O-])c3ccc(N(CC)CC)cc3[o+]c2c1` [Compound 56], for the setting “two-photon images of mouse cortex, route and concentration not stated”, the “in vivo endothelial labeling/uptake” value is given as “highly specific in vivo endothelial labeling”.

In the case of `O=C(O)CCc1ccc2c(c1)Oc1c3c4c(cc1=C2c1ccc(S(=O)(=O)O)cc1S(=O)(=O)[O-])CCC[N+]=4CCC3` [Compound 37, 2-(12-(2-carboxyethyl)-1,2,3,5,6,7-hexahydrochromeno[2,3-f]pyrido[3,2,1-ij]quinolin-4-ium-9-yl)-5-sulfobenzenesulfonate], the Target entry is listed as “Astrocyte”.

For `Cc1ccc2c(-c3ccc(S(=O)(=O)O)cc3S(=O)(=O)[O-])c3cc4c5c(c3[o+]c2c1)CCCN5CCC4` [Compound 40, 2-(12-methyl-2,3,6,7-tetrahydro-1H,5H-chromeno[2,3-f]pyrido[3,2,1-ij]quinolin-14-ium-9-yl)-5-sulfobenzenesulfonate], the Target result is reported as “Endothelial”.

For `O=S(=O)([O-])c1cc(S(=O)(=O)O)ccc1-c1c2ccc(B(O)O)cc2[o+]c2c3c4c(cc12)CCCN4CCC3` [Compound 41, 2-(12-borono-2,3,6,7-tetrahydro-1H,5H-chromeno[2,3-f]pyrido[3,2,1-ij]quinolin-14-ium-9-yl)-5-sulfobenzenesulfonate], the Target entry was “Endothelial”.

Regarding `O=S(=O)([O-])c1cc(S(=O)(=O)O)ccc1-c1c2ccc(Br)cc2[o+]c2ccc(S(=O)(=O)O)cc12` [Compound 32, 2-(6-bromo-2-sulfoxanthylium-9-yl)-5-sulfobenzenesulfonate], the Target entry is “Endothelial”.

As to `O=S(=O)([O-])c1cc(S(=O)(=O)O)ccc1C1=c2cc3c4c(c2Oc2c1cc1ccccc1c2Br)CCC[N+]=4CCC3` [Compound 45, 2-(15-bromo-1,2,3,5,6,7-hexahydrobenzo[6,7]chromeno[2,3-f]pyrido[3,2,1-ij]quinolin-4-ium-9-yl)-5-sulfobenzenesulfonate], the Target entry is recorded as “Endothelial”.

For the compound `O=S(=O)([O-])c1cc(S(=O)(=O)O)ccc1-c1c2ccc(Br)cc2[o+]c2cc(N3CCOCC3)ccc12` [Compound 30, 2-(3-bromo-6-morpholinoxanthylium-9-yl)-5-sulfobenzenesulfonate], the Target entry was “Endothelial”.

Turning to `O=S(=O)([O-])c1cc(S(=O)(=O)O)ccc1C1=c2cc3c4c(c2Oc2cc(F)ccc21)CCC[N+]=4CCC3` [Compound 2, 2-(12-fluoro-1,2,3,5,6,7-hexahydrochromeno[2,3-f]pyrido[3,2,1-ij]quinolin-4-ium-9-yl)-5-sulfobenzenesulfonate], the Target entry is “Endothelial” and the “endothelial cell labeling/uptake after topical application to the brain” value is listed as “selectively labeling endothelial cells in vivo”.

These data come from patent US20260272895A1, “METHODS AND KITS FOR DELIVERY OF COMPOUNDS INTO CELLS” (Yale University, priority 2023, published 2026).
